Assay results as given in patent US20130288897A1, “SYNERGISTIC PESTICIDAL COMPOSITIONS” (Dow AgroSciences LLC, priority 2012, published 2013).

Legend:
Type in all cases: in vivo
[1] = test system: cotton aphid (CA) Aphis gossypii; assay: Cotton aphid track-sprayer test on cotton: Compound A or imidacloprid with glufosinate (Liberty) and AMS (Example XVII); conditions: AMS 18 mg/ml, no insecticide, no glufosinate
Description: (§1) Glyphosate resistant cotton plants (Gossypium hirsutum, cv ‘DP493’) were trimmed to 1 true leaf and infested with mixed stages of cotton aphid (CA) Aphis gossypii 24 h prior to application. Mixed developmental stage CA were infested onto the upper surface of each treated leaf by transferring infested foliage from an insectary colony. Each plant was infested with approximately equal numbers of CA based on visual estimation of aphid density on the infested material. Infested plants were held in the growth chamber (L:D 16:8 and 25° C.). Glufosinate (Liberty®, Bayer CropScience, Monheim am Rhein, Germany) was mixed with water at a rate equivalent to 5 ml/L (0.4 qt/Ac). […] High rate Compound A concentrations were created by diluting Compound A technical material with acetone to achieve a 10 ppm solution. […] […] […] Nozzle height above the canopy was held constant at ca. 30 cm. Plants were evaluated after 3 days from the time of infestation by counting all live cotton aphids on each plant.
TABLE 6 contains the calculated Colby values for combinations of treatments as well as the outcome of statistical evaluations between predicted (Colby) and actual measured values. These T-test statistics were only calculated for the 0.2 and 0.05 g/Ha rates. […] These same trends were apparent when Compound A was applied with both glufosinate and AMS.

[2] = test system: cotton aphid (CA) Aphis gossypii; assay: Cotton aphid track-sprayer test on cotton: Compound A or imidacloprid with Durango (glyphosate) or Durango Blank and AMS (Example XVI); conditions: average of 5 reps
Description: as §1, with “C.). Glyphosate (Durango®, Dow AgroSciences, LLC, Indianapolis, Ind.)” for “C.). Glufosinate (Liberty®, Bayer CropScience, Monheim am Rhein, Germany)”, “to 15” for “to 5”, “ml/L (1.2” for “ml/L (0.4”, “qt/Ac). […] A glyphosate free formulation of Durango® was prepared using these same mixing instructions.” for “qt/Ac).”
[…] Percent control for all treatments was calculated using the rep average for the untreated plants.

[3] = test system: cotton aphid (CA) Aphis gossypii; assay: Cotton aphid track-sprayer test on cotton: Compound A with glufosinate (Liberty) and AMS, rates 0.4, 0.1 and 0.025 g/Ha (Example XVIII); conditions: AMS 18 g/L, no insecticide, no Lib.
Description: as §1, with “24 hours” for “24 h”, “a 20” for “a 10”

## N.N.O=S(=O)(O)O [AMS, ammonium sulfate]
[1]
  % control AVE: 4.5%
[2]; AMS 18 g/L alone, 0 g insecticide/Ha, block of Durango treatments
  % control Ave: −7.0%
[2]; AMS 18 g/L alone, no insecticide, block of Durango Blank treatments
  % control Ave: 13.3%
[2]; AMS 18 g/L with Durango Blank 0.015 ml/ml, no insecticide
  % control Ave: 26.5%
[3]
  % Control (Negatives to zero) Ave: 13.2%
